Tests used:
NLRC4 inflammasome = NLRC4 inflammasome selectivity assay, J774A.1 cells, LPS/flagellin, IL-1β ELISA; assay type: cell-based, murine; conditions: 10 μM compound, LPS (1 μg/mL) 1 h, flagellin (1 μg/mL) 6 h
AIM2 inflammasome = AIM2 inflammasome selectivity assay, J774A.1 cells, LPS/poly; assay type: cell-based, murine; conditions: 10 μM compound, LPS (1 μg/mL) 1 h, poly(dA:dT) (4 μg/ml) 8 h
NLRP3 inflammasome = experiment: IL-1β release from mouse peritoneal macrophages upon LPS/ATP challenge; assay type: cell-based
hCMEC/D3 cells = experiment: Cytotoxicity on hCMEC/D3 cells; conditions: 20 μM, 2 h

## C#CCNS(=O)(=O)c1ccc(CCN(Cc2cc(Cl)ccc2OC)C(=O)C=C)cc1 [Compound 2, N-(5-chloro-2-methoxybenzyl)-N-(4-(N-(prop-2-yn-1-yl)sulfamoyl)phenethyl)acryl-amide]
NLRC4 inflammasome
  effect on IL-1β production by NLRC4 inflammasome: significantly inhibited
AIM2 inflammasome
  effect on IL-1β production by AIM2 inflammasome: significantly inhibited
NLRP3 inflammasome
  inhibitory activity on IL-1β release: confirmed

## C#CCNS(=O)(=O)c1ccc(CCN(Cc2cc(Cl)ccc2OCCC)C(=O)Cc2ccsc2)cc1 [Compound 17, N-(5-chloro-2-propoxybenzyl)-N-(4-(N-(prop-2-yn-1-yl)sulfamoyl)phenethyl)-2-(thio-phen-3-yl)acetamide]
hCMEC/D3 cells
  cytotoxicity (cell viability): did not show significant toxic effects
NLRC4 inflammasome
  effect on IL-1β production by NLRC4 inflammasome: did not significantly interfere
AIM2 inflammasome
  effect on IL-1β production by AIM2 inflammasome: did not significantly interfere
